Article PMC1073692, “An Unbiased Cell Morphology–Based Screen for New, Biologically Active Small Molecules” (PLoS Biology, 2005)
Converted amounts (≈) assume the structure as drawn. “And” between values parts separate entries of the source, which are not always exact repeats. Equal values may be shown once. “Also recorded” adds a separate entry of the source. Read-outs that look alike come from different tables or passages of the source.

Legend:
protein kinase A = target: T1, protein kinase A (Homo sapiens, UniProt P17612); assay: Kinase disk assay (32P transfer to peptide), PKA; format: biochemical; settings: remaining kinase activity
T1 construct: purchased Upstate Cell Signaling Specialties
Protocol: (§1) Fyn and p38 kinases were expressed in bacteria and purified as previously described. Protein kinase A and Protein kinase B were obtained commercially (Upstate Cell Signaling Specialties Charlottesville, Virginia, United States). […] Reaction mixtures (27 μl) were spotted onto a phosphocellulose disk and washed with 0.5% H3PO4. The transfer of ^32P was measured by standard scintillation counting. […] When the IC50 value fell between two measured concentrations, it was calculated based on the assumption of an inversely proportional relationship between inhibitor concentration and counts per minute between the two data points.
(§2) IC50 values against Fyn and p38 are given (left), and percentage activity of PKA and PKB in presence of the inhibitors are given (right). Kinase activity was determined using a standardized disk assay based on the P^32 transfer to a synthetic peptide (See Materials and Methods). […] Peptide subrate sequences for each kinase are shown below:
bzRRASLG (100 µM) was used as the susbtrate for PKA.

[1] = Solubility limit in the CBR1 assay; format: physicochemical
[2] = system: A549, DU145, HUVEC, SF268 and SKOV3 cells; assay: Cytometrix cell morphology-based screen; design: species or system human; settings: for Cytometrix phenotype (PCA trajectory): 6 nM to 40 μM; for EC50: Homo sapiens, read-out: Approximate EC50 (distance in PCA space from DMSO controls); for Potency in Cytometrix relative to parent compound (fold lower): linker analog vs parent, data not shown
Protocol: SKOV3 (ovarian epithelial cancer), A549 (lung epithelial cancer), and SF268 (central nervous system epithelial cancer) were chosen for their broad genetic diversity and obtained from the National Institutes of Health. These human cells were grown and maintained in RMPI medium (Mediatech, Herndon, Virginia, United States) with 5% fetal calf serum (FBS, HyClone, Logan, Utah, United States). DU145 (prostate epithelial cancer) cells ( ATTC, Manassas, Virginia, United States) were maintained in MEM with 5% FBS. HUVEC cells (VEC Technologies, Rensselaer, New York, United States) were maintained in MCDB131 medium (VEC Technologies) with 10% FBS. For the assays 1,000–1,800 trypsinized (Mediatech) cells per well (depending on cell type) were plated in 384-well plates (Corning Costar, Acton, Massachusetts, United States) using a Multidrop (Thermo Labsystems, Beverly, Massachusetts, United States) and incubated for 24 h, the approximate doubling time. Six cell plates were made for each cell line.
Compound stocks were maintained in DMSO. Compound information was stored in ActivityBase (ID Business Solutions, Guildford, United Kingdom). Compounds were serially diluted in 384-well drug plates to achieve eight concentrations diluting 3× in DMSO between wells using a Multimek (Beckman Coulter, Fullerton, California, United States). Wells were reserved on every drug plate for negative and positive controls. Negative-control wells contained DMSO only and the positive-control wells received a titration of paclitaxel, a tubulin stabilizer (Sigma-Aldrich-Fluka, St. Louis, Missouri, United States). […] Small molecules were tested at 40 μM on cells based on the logic that cellular effects on cells at […] concentration are most likely nonspecific and that we would most likely get a full-dose response after eight 3-fold dilutions (6 nM to 40 μM final concentrations).
Compounds were added to cell plates from drug plates. Compound mixed with medium was added to the cells to achieve a 0.4% DMSO concentration on prepared cell plates using a PlateTrak (CCS Packard, Torrance, California, United States). Treated cells were incubated for another 24 h, the compound exposure time.
Cells were stained for visualization of the nuclei, Golgi apparatus, and microtubules. Cells were fixed with 4% formaldehyde (Polysciences, Warrington, Pennsylvania, United States) for 1 h; washed in TBS (Teknova, Half Moon Bay, California, United States); blocked in 0.01% Triton X-100 (ICN Biomedicals, Irvine, California, United States) and 1% BSA in TBS (Teknova) and then left to incubate for 1 h; stained with 0.01% Triton X-100, 0.1% BSA, 5 μg/ml Hoechst 33342 (Molecular Probes, Eugene, Oregon, United States), 5 μg/ml FITC-Lectin Lens Culinaris (Sigma-Aldrich-Fluka), and 3 μg/ml Rhodamine Red–labeled monoclonal antibody DM1α (courtesy of Tim Stearns) for 1 h; and then washed in TBS. All of these steps were performed with a PlateTrak using an ELx405 microplate washer (Bio-Tek Instruments, Winooski, Vermont, United States). This was done in triplicate for each cell line.
Cells were imaged on an inverted Axiovert 100M epifluorescent microscope (Carl Zeiss, Oberkochen, Germany) with a 5× objective and a Xenon lamp (Sutter Instruments, Novato, California, United States). A 5× magnification was chosen (rather than 40×) primarily as a function of the need to acquire a large number of individual cells in order to gather statistically relevant data on relatively rare subpopulations. The number of cells in a randomly acquired 40× image is not sufficient to make meaningful statistical measurements across many cells. Metamorph (Universal Imaging, Downingtown, Pennsylvania, United States) was used to control the motorized x, y, z stage (Prior Scientific, Rockland, Massachusetts, United States) that moved the plate to each well, autofocused, and took three successive fluorescent images with an Orca 100 camera (Hamamatsu, Hamamatsu City, Japan). […]

protein kinase B = target: T2, protein kinase B (Homo sapiens, UniProt P31749); assay: Kinase disk assay (32P transfer to peptide), PKB; format: biochemical; settings: 25 min, read-out: Relative activity @ 1 µM inhibitor PKB
T2 construct: purchased Upstate Cell Signaling Specialties
T2 sequence (P31749 whole entry, species assumed): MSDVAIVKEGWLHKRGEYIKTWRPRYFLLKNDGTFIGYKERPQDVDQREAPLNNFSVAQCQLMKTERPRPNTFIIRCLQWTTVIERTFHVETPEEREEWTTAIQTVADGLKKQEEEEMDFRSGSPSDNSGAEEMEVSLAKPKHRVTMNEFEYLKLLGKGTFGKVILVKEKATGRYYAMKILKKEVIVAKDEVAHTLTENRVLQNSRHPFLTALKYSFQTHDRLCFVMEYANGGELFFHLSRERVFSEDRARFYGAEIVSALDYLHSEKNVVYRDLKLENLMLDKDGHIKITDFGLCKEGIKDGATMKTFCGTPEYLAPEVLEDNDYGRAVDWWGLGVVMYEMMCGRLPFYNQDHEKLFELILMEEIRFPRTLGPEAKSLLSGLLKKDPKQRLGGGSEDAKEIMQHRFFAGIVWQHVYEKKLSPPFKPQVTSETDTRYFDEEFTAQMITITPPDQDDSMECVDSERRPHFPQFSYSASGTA
Protocol: as §1, §2
bzRPRTSSF (100 µM) was used as the susbtrate for PKB.

Fyn = target: T3, Fyn (Homo sapiens, UniProt P06241); assay: Kinase disk assay (32P transfer to peptide), Fyn; format: biochemical
T3 construct: made in house; host or cells: bacteria
T3 sequence (P06241 whole entry, species assumed): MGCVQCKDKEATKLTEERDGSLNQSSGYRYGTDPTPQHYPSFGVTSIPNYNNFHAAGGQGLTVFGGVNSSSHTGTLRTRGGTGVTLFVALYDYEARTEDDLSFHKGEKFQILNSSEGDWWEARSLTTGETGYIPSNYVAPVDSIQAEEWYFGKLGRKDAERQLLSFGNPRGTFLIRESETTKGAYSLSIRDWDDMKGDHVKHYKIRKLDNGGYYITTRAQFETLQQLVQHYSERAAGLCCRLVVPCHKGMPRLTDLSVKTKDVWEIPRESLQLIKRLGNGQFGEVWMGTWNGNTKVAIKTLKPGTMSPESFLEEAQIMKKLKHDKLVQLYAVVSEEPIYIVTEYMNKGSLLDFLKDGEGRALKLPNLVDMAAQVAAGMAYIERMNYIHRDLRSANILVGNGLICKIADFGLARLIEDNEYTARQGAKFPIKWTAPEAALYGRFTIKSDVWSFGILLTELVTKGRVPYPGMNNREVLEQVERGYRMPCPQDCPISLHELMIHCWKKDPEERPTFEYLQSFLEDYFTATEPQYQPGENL
Protocol: as §1, §2
[…] (100 µM) was used as the substrate for Fyn.

p38-α = target: T4, p38-α (Homo sapiens, UniProt Q16539); assay: Kinase disk assay (32P transfer to peptide), p38; format: biochemical; settings: Table S3; […] 100 µM substrate, 11 nM [γ-32P]ATP
T4 construct: made in house; host or cells: bacteria
T4 sequence (Q16539 whole entry): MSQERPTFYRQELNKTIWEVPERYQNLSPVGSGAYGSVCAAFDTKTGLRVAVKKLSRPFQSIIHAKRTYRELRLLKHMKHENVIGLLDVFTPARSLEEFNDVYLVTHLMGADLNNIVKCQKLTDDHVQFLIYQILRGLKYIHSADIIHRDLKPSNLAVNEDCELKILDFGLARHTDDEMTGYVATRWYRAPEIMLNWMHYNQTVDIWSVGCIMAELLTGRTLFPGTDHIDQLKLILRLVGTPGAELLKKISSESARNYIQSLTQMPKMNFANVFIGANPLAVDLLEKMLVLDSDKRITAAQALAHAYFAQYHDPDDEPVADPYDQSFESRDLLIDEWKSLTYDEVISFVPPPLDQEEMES
Protocol: as §1, §2
[…] (100 µM) was used as the substrate for p38.

human CBR1 = target: T5, human CBR1 (Homo sapiens, UniProt P16152); assay: CBR1 assay (NADPH-dependent reduction of menadione, spectrophotometric)
T5 sequence (P16152 1-277): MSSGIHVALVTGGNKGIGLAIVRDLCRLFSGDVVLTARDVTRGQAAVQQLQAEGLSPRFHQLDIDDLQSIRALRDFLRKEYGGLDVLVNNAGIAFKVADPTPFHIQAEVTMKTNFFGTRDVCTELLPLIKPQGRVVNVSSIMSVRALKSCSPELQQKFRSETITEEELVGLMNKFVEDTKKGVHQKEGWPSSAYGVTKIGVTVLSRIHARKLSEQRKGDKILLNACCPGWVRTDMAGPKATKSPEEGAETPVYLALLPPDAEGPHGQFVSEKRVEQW
Protocol: CBR1 activity was determined spectrophotometrically at 25 °C. The standard assay mixture consisted of 50 mM sodium phosphate (pH 6.8), 200 μM NADPH, and 200 μM menadione in a total volume of 1 ml. Compounds were dissolved in DMSO as 100× stock solutions. Reactions were initiated by the addition of enzyme, and initial rates were determined by monitoring the disappearance of NADPH at 340 nM. Controls without substrates or enzyme were routinely included.

A549 cells [3] = assay: PI-stained cell assay, serum-withdrawal-induced apoptosis; format: cell-based, human; settings: for Protection against serum-withdrawal-induced apoptosis (PI staining): 65 h following serum withdrawal; for Enhancement of induction of apoptosis by cell stresses: A549, interferon-γ + Fas ligand, H2O2, interleukin-1β, serum withdrawal, interleukin-1β + serum withdrawal, data not shown
Excerpt: We chose to focus on signals that induce apoptosis in A549 adenocarcinoma cells because this endpoint is important for many cell-fate decisions, including those relevant to cancer and inflammation. CBR1 has been directly implicated in redox reactions leading to H2O2 generation, a known stimulus for apoptosis. A549 cells were subjected to a wide range of cell stresses previously shown to induce apoptosis: (1) interferon-γ + Fas ligand, (2) H2O2, (3) interleukin-1β, (4) serum withdrawal, or (5) interleukin-1β + serum withdrawal.
(§3) Cell viability was determined by the alamarBlue reagent reduction assay in a 96-well culture plate, measuring the absorbance at 570 and 600 nm spectrophotometrically. The amount of PI-stained cells was estimated by measuring fluorescence following incubation with PI (5 μg/ml). For both experiments, data are shown as the percentages of nontreated control cells.

A549 cells [4] = assay: Cell viability assay (alamarBlue reduction), daunorubicin combination; format: cell-based, human; settings: for Cytotoxicity on A549 cells when used alone: 8 μM; for Enhancement of daunorubicin-mediated A549-cell killing: 8 μM compound with 440 nM daunorubicin
Excerpt: To test this hypothesis, we measured the ability of hydroxy-PP-Me and PP-L to block CBR1-mediated metabolism of daunorubicin in A549 cells using cell killing as a measure of the cellular status of daunorubicin metabolism. […] Hydroxy-PP-Me induced a 25% enhancement of daunorubicin-mediated A549-cell killing consistent with its ability to inhibit CBR1-mediated daunorubicin metabolism. […] Although the observed 25% enhancement of daunorubicin-mediated cell killing is modest, the hydroxy-PP-Me dose dependence (Figure 5B) of this effect is further evidence that it is CBR1 mediated rather than a general toxic response.
A549 cells were purchased from ATCC and cultured in the F-12K medium with 10% of FBS. Cells were maintained at 37 °C in an atmosphere of 5% CO2. Adherant cells were released for passaging using an isotonic Trypsin solution (0.25% Trypsin, 0.02% Versene). Rabbit anti-human CBR1 antibody was obtained from Dr. Tsuchida. The CBR expression vector, pET-11aCR, was obtained from Dr. Wermuth.
as §3

[5] = 1 µM inhibitor, remaining kinase activity
[6] = Table S3, LEEIYGEFKKK 100 µM substrate, 11 nM [γ-32P]ATP, read-out: IC50 (nM) Fyn
[7] = read-out: IC50 against Fyn (Figure 3)
[8] = IC50 against CBR1, 200 μM NADPH, 200 μM menadione, pH 6.8, 25 °C

| Compound | Relative activity @ 1 µM inhibitor PKA (protein kinase A) | Cytometrix phenotype (PCA trajectory) ([2]; 24 h, five cell types) | activity at 1 µM (protein kinase B; [5]) | IC50 (Fyn; [7]) | IC50 (p38-α) | IC50 (human CBR1; [8]) | Protection against serum-withdrawal-induced apoptosis (PI staining) (A549 cells [3]; A549 cells) | also measured |
| --- | --- | --- | --- | --- | --- | --- | --- | --- |
| CC(C)(C)n1nc(-c2ccccc2)c2c(N)ncnc21 [PP, 1-tert-butyl-3-phenyl-1H-pyrazolo[3,4-d]pyrimidin-4-amine, reference compound] | 92% | phenotypic profile comparable to PP2 | 92% | 50 nM | 4000 nM | > 200000 nM |  | solubility [1]: 200 µM (≈ 53.5 µg/mL); IC50 (Fyn; [6]): 110 nM; Inhibition of CBR1 activity (human CBR1; up to solubility limit of 200 μM): no inhibition |
| CC(C)(C)n1nc(-c2ccc(Cl)cc2)c2c(N)ncnc21 [PP2, 1-tert-butyl-3-(4-chlorophenyl)-1H-pyrazolo[3,4-d]pyrimidin-4-amine, reference compound] |  |  |  |  |  |  |  | EC50 ([2]; 24 h): ~129000 nM; activity at 1 µM (protein kinase B): 103% |
| CCOCCn1nc(-c2cccc(O)c2)c2c(N)ncnc21 [hydroxy-PP-L] |  |  |  |  |  |  | protects A549 cells against serum-withdrawal-induced apoptosis, although to a lesser extent than hydroxy-PP-Me | Potency in Cytometrix relative to parent compound (fold lower) [2]: approximately 5 fold; Protection against serum-withdrawal-induced apoptosis (PI staining) (A549 cells [3]; A549 cells, listed as Hydroxy-PP-L): dose-dependent decrease in PI staining |
| COC(=O)[C@@]1(O)C[C@H]2O[C@]1(C)n1c3ccccc3c3c4c(c5c6ccccc6n2c5c31)C(=O)NC4 [K252a, reference compound] |  | dose-dependent morphological changes in A549, DU145, HUVEC, and SF268 cells but not SKOV3 cells |  |  |  |  |  |  |
| CC(=O)O[C@H]1C(=O)[C@@]2(C)[C@H]([C@H](OC(=O)c3ccccc3)[C@]3(O)C[C@H](OC(=O)[C@H](O)[C@@H](NC(=O)c4ccccc4)c4ccccc4)C(C)=C1C3(C)C)[C@]1(OC(C)=O)CO[C@@H]1C[C@@H]2O [paclitaxel, reference compound] |  | pronounced and highly reproducible trajectory |  |  |  |  |  |  |
| CNc1ncnc2c1c(-c1cccc(O)c1)cn2C(C)C [hydroxy-PP-Me, 3-(7-isopropyl-4-(methylamino)-7H-pyrrolo[2,3-d]pyrimidin-5yl)phenol] | 106% |  | 95% | 70000 nM and > 70000 nM | > 50000 nM | 759 nM | dose-dependent decrease in PI staining; also recorded: almost completely protected against apoptosis | Cytotoxicity on A549 cells when used alone (A549 cells [4]): minimal cytotoxicity; Enhancement of daunorubicin-mediated A549-cell killing (A549 cells [4]): 25%; Cell viability with concomitant daunorubicin treatment (A549 cells [4]; 1–8 μM compound plus daunorubicin): dose-dependent decrease in cell viability; Enhancement of induction of apoptosis by cell stresses (A549 cells [3]): no enhancement; Apoptosis induced by serum withdrawal blocked (A549 cells [3]; A549 cells): more than 90%; IC50 (Fyn; [6]): > 50000 nM |
| COc1cccc2c1C(=O)c1c(O)c3c(c(O)c1C2=O)C[C@@](O)(C(C)=O)C[C@@H]3O[C@H]1C[C@H](N)[C@H](O)[C@H](C)O1 [daunorubicin, reference compound] |  |  |  |  |  |  |  | IC50 (A549 cells [4]; Homo sapiens, A549, read-out: Approximate IC50 for cell killing as a single agent): ~440 nM |
| CCOCCn1nc(-c2ccccc2)c2c(N)ncnc21 [PP-L] |  |  |  |  |  |  | does not | Potency in Cytometrix relative to parent compound (fold lower) [2]: approximately 5 fold; Cytotoxicity on A549 cells when used alone (A549 cells [4]): minimal cytotoxicity; Enhancement of daunorubicin-mediated A549-cell killing (A549 cells [4]): no enhancement of cell killing |
| CC(C)(C)n1nc(-c2cccc(O)c2)c2c(N)ncnc21 [hydroxy-PP, 3-(1-tert-butyl-4-amino-1H-pyrazolo[3,4-d]pyrimidin-3-yl)phenol] | 110% | distinct from the phenotypes induced by kinase inhibitors and the microtubule depolymerization inhibitors | 91% | 5 nM | 17000 nM | 788 nM | able to block A549-cell apoptosis | EC50 ([2]; 24 h treatment, five cell types, concentration of Figure 1D, called approximately the EC50): ~400 nM; Enhancement of induction of apoptosis by cell stresses (A549 cells [3]): no enhancement; IC50 (human CBR1; IC50 against CBR1, re-screen of the screening collection, data not shown): < 1000 nM |
